Laboratory results reported in the NIST ThermoML archive (doi:10.1016/j.jct.2016.09.041).

Assay: molar heat capacity at constant pressure
Conditions: 101.33 kPa, Crystal 1, Small (less than 1 g) adiabatic calorimetry

N[C@@H](Cc1c[nH]c2ccccc12)C(=O)O [L-tryptophan]
Conditions	molar heat capacity at constant pressure [J/K/mol]
124.29 K	103.18
125.09 K	103.85
125.89 K	104.51
126.7 K	105.01
127.5 K	105.51
128.3 K	106.18
129.1 K	106.67
129.91 K	107.26
130 K	107.26
130.71 K	107.84
131.51 K	108.34
132.31 K	108.75
133.12 K	109.25
133.92 K	109.67
134.72 K	110.5
135.52 K	111.08
136.33 K	111.66
137.13 K	112.16
137.93 K	112.74
138.74 K	113.33
139.54 K	113.83
140 K	114.16
140.34 K	114.32
141.14 K	114.74
141.95 K	115.49
142.75 K	116.07
143.55 K	116.57
144.35 K	117.23
145.16 K	117.65
145.96 K	118.31
146.76 K	118.73
147.56 K	119.31
148.37 K	119.81
149.17 K	120.64
149.97 K	121.14
150 K	121.06
150.77 K	121.56
151.57 K	122.22
152.38 K	122.97
153.18 K	123.22
153.98 K	123.64
154.78 K	124.55
155.58 K	124.8
156.38 K	125.55
157.18 K	126.13
157.98 K	126.46
158.79 K	127.46
159.59 K	127.96
160 K	128.04
160.39 K	128.13
161.19 K	128.96
161.99 K	129.62
162.79 K	130.2
163.59 K	130.79
164.39 K	131.29
165.19 K	131.7
166 K	131.95
166.8 K	132.7
167.6 K	133.45
168.39 K	134.03
169.19 K	134.61
169.99 K	135.19
170 K	135.03
170.79 K	135.61
171.59 K	136.19
172.39 K	136.52
173.19 K	137.11
173.99 K	137.6
174.79 K	138.1
175.59 K	138.77
176.39 K	139.18
177.19 K	140.1
177.99 K	140.51
178.79 K	141.01
179.59 K	141.6
180 K	141.93
180.38 K	142.09
181.18 K	142.68
181.97 K	143.34
182.76 K	143.84
183.57 K	144.59
184.36 K	144.92
185.16 K	145.59
185.96 K	146.17
186.75 K	146.67
187.55 K	147.25
188.34 K	147.67
189.14 K	148.5
189.93 K	149.16
190 K	148.91
190.73 K	149.58
191.53 K	149.91
192.32 K	150.49
193.12 K	151.07
193.9 K	151.91
194.7 K	152.4
195.49 K	152.82
196.29 K	153.24
197.08 K	153.82
197.87 K	154.4
198.67 K	155.23
199.46 K	155.65
200 K	156.06
200.26 K	156.31
201.25 K	156.89
202.45 K	157.81
203.66 K	158.64
204.86 K	159.55
206.06 K	160.3
207.27 K	161.3
208.48 K	162.22
209.68 K	162.96
210 K	163.21
210.89 K	163.88
212.09 K	164.54
213.3 K	165.54
214.51 K	166.21
215.73 K	166.95
216.93 K	167.95
218.14 K	169.28
219.36 K	170.2
220 K	170.28
220.57 K	170.86
221.79 K	171.61
223 K	172.77
224.22 K	173.69
225.43 K	174.11
226.65 K	175.1
227.87 K	176.35
229.09 K	177.18
230 K	177.76
230.31 K	178.01
231.54 K	179.09
232.76 K	179.76
233.98 K	180.59
235.21 K	181.67
236.43 K	182.75
237.66 K	183.67
238.88 K	184.5
240 K	185.25
240.11 K	185.41
241.34 K	186.24
242.57 K	187.33
243.8 K	188.07
245.03 K	188.74
246.26 K	190.07
247.5 K	190.82
248.75 K	191.98
249.99 K	192.56
250 K	192.81
251.23 K	193.73
252.46 K	194.81
253.7 K	195.72
254.94 K	196.72
256.18 K	197.63
257.43 K	198.47
258.67 K	199.3
259.92 K	200.3
260 K	200.38
261.16 K	201.13
262.41 K	202.04
263.66 K	203.04
264.91 K	204.12
266.17 K	204.87
267.42 K	206.03
268.69 K	207.2
269.95 K	208.19
270 K	208.03
271.21 K	208.86
272.47 K	210.02
273.73 K	210.77
274.99 K	211.6
276.25 K	212.93
277.51 K	213.85
278.78 K	214.51
280 K	215.76
280.05 K	215.84
281.32 K	216.76
282.59 K	217.42
283.86 K	218.5
285.13 K	219.83
286.41 K	220.17
287.69 K	221.58
288.96 K	222.74
290 K	223.83
290.24 K	223.49
291.52 K	224.57
292.8 K	225.16
294.08 K	226.4
295.36 K	227.48
296.65 K	227.73
297.93 K	228.9
298.15 K	228.98
299.23 K	229.65
300 K	230.31
300.76 K	230.56
302.42 K	231.39
304.07 K	232.81
305.72 K	234.22
307.35 K	235.3
308.99 K	236.3
310 K	237.05
310.61 K	237.38
312.22 K	239.21
313.83 K	240.04
315.43 K	240.54
317.02 K	241.62
318.6 K	242.87
320 K	243.61
320.17 K	243.78
321.71 K	244.28
323.27 K	246.27
324.81 K	246.94
326.3 K	247.85
327.82 K	248.94
329.34 K	250.02
330 K	250.52
330.82 K	251.18
332.31 K	252.43
333.79 K	253.51
335.26 K	254.09
336.72 K	255.17
338.17 K	256.67
339.59 K	256.42
340 K	258
341.01 K	258.66
342.42 K	259.91
343.82 K	260.91
345.21 K	262.16
346.6 K	263.24
347.91 K	263.9
349.09 K	265.81
350 K	265.98
350.43 K	266.89
351.76 K	268.06
353.08 K	269.06
354.39 K	269.47
355.67 K	270.14
356.94 K	271.3
358.2 K	272.71
359.46 K	273.55
360 K	273.71
360.69 K	274.04
361.93 K	275.13
363.07 K	275.87
364.26 K	276.54
365.45 K	277.29
366.62 K	277.95
367.71 K	277.87
368.55 K	278.87
369.68 K	279.87
370 K	279.62
370.81 K	278.62
371.9 K	280.61
372.99 K	281.53
